From US20250154169A1, “COMPOUNDS AND METHODS FOR MODULATING SPLICING” (REMIX THERAPEUTICS INC., priority 2021, published 2025)

Key:
Format in all cases: cell-based, human
[1] = tested on: HTT mRNA; experiment: Splicing RT-qPCR assay, HTT canonical (CJ) and alternative (AJ) junction mRNA; conditions: Homo sapiens, A673 or K562 cells, 24 hours compound treatment; for IC50: 24 h, read-out: HTT CJ (IC50, decrease in canonical junction mRNA); for AC50: read-out: HTT AJ (AC50, increase in alternative junction mRNA)
Method in brief: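 Canonical (CJ) and alternative-exon (AJ) junction mRNAs quantified by one-step RT-qPCR in cell lysates, normalized to housekeeping PPIA for A673 and GAPDH or GUSB for K562. Cells were exposed 24 h at 37 °C to 11-point 3-fold compound series from 10 uM final, with DMSO at or below 0.25%.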

[2] = tested on: SMN2 mRNA; experiment: Splicing RT-qPCR gene panel, SMN2 canonical junction (CJ) mRNA; conditions: Homo sapiens, Tables 4A/4B, read-out: SMN2 (IC50, decrease in CJ mRNA, gene panel)
Method in brief: (§1)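 Cells (A673 in DMEM/10% FBS, K562 in IMDM/10% FBS) got compound for 24 h, top dose 10 uM, 11 points, 3-fold steps, DMSO ≤0.25%. Lysates went to RT-qPCR for the canonical exon-exon junction; ΔΔCt against housekeeper and DMSO gave RQ, then percentage response.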

[3] = tested on: Target C mRNA; experiment: Splicing RT-qPCR gene panel, Target C canonical junction (CJ) mRNA; conditions: Homo sapiens, Tables 4A/4B, read-out: Target C (IC50, decrease in CJ mRNA, gene panel)
Method in brief: as §1

[4] = tested on: HTT mRNA; experiment: Splicing RT-qPCR gene panel, HTT canonical junction (CJ) mRNA; conditions: Homo sapiens, Tables 4A/4B, read-out: HTT (IC50, decrease in CJ mRNA, gene panel)
Method in brief: as §1

IC50 [1] [nM]	IC50 [2] [nM]	IC50 [3] [nM]	IC50 [4] [nM]	SMILES	AC50 [1] [nM]
> 10000	100 to 1000	> 10000	> 10000	Cc1cn2cc(NC(=O)c3ccc(N4CCC(NC(C)(C)C)CC4)c4cc(C)oc34)cc(F)c2n1 [Compound 197]	> 10000
1000 to 10000	< 100	1000 to 10000	1000 to 10000	CCC1CN(c2ccc(C(=O)Nc3cc(F)c4nc(C)cn4c3)c3oc(C)cc23)CCN1 (centres unmarked) [Compound 192]	1000 to 10000
1000 to 10000	100 to 1000	> 10000	1000 to 10000	Cc1cn2nc(NC(=O)c3ccc(C4CCNCC4)c4ccoc34)cc(C)c2n1 [Compound 119]	> 10000
100 to 1000	100 to 1000	1000 to 10000	100 to 1000	Cc1cn2cc(NC(=O)c3ccc(N4CCNC(C)C4)c4cc(C)oc34)cc(F)c2n1 (centres unmarked) [Compound 190]	100 to 1000
